Ten compounds from patent US20260092071A1, “COMPOUNDS AND COMPOSITIONS AS SMARCA2/4 DEGRADERS AND USES THEREOF” (REGENTS OF THE UNIVERSITY OF MICHIGAN, priority 2022, published 2026) can be followed below.

Type in all cases: cell-based
In assay [1] the target is T1, SMARCA2 (Homo sapiens, UniProt P51531). Description: HiBiT assay for protein degradation, Hela SMARCA2-HiBiT cells (A series).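 For SMARC A2 Hela HiBit Dmax (%): 24 h compound treatment.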 Set-up: Hela cells were genetically modified via CRISPR/Cas9 to fuse HiBiT to the carboxy terminus of SMARCA2; host or cells: HeLa (CRISPR/Cas9 HiBiT knock-in). The note with it: for DC50: read-out: SMARC A2 Hela HiBit DC50; for Dmax: read-out: SMARC A2 Hela HiBit Dmax (%). As for the experimental part:
(§1) Hela cells were genetically modified via CRISPR/Cas9 to fuse HiBiT to the carboxy terminus of SMARCA2 (Promega CS302365) or SMARCA4 (Promega CS3023225). Cells were cultured in DMEM containing 10% FBS and 1% (Vol:Vol) penicillin-streptomycin. […] At the end of experiment, levels of SMARCA2 or SMARCA4 expression were assessed with Nano-Glo® HiBiT Lytic Detection Assay (Promega N3050). IC50 was obtained using the GraphPad Prism data analysis software.

Assay [2] deals with T2, SMARCA4 (Homo sapiens, UniProt P51532). Kind of assay: HiBiT assay for protein degradation, Hela SMARCA4-HiBiT cells (A series). Set-up: fuse HiBiT to the carboxy terminus of SMARCA2 (Promega CS302365) or SMARCA4 (Promega CS3023225); host or cells: HeLa (CRISPR/Cas9 HiBiT knock-in). The settings on record: for DC50: read-out: SMARC A4 Hela HiBit DC50; for Dmax: read-out: SMARC A4 Hela HiBit Dmax(%). As for the experimental part: as §1
On the technique in general: HiBiT is a short tag that completes a luciferase, so light tracks the accessible tagged protein.

For assay [3], the target named is T2, SMARCA4. Description: HiBit assay in engineered HT1080 CRISPR knock-in cell, 6 hrs (B series), SMARCA4. The note with it: 6 hrs incubation; for SMARC A4 HT1080 HiBit Dmax(%) / DC50: HT1080 CRISPR knock-in cells; for DC50: read-out: SMARC A4 HT1080 HiBit DC50; for Dmax: HT-1080, HT1080 CRISPR knock-in cells, read-out: SMARC A4 HT1080 HiBit Dmax(%). An outline of the steps: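 Using a 6 hr treatment window at 37° C and 5% CO2, tagged HT1080 knock-in cells were exposed to test compounds with DMSO vehicle held at 0.1%. Signal came from lytic LgBiT/substrate reagent added after incubation, with control wells lacking LgBiT, and was read as luminescence.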

The target in assay [4] is T1, SMARCA2. Description: HiBit assay in engineered HT1080 CRISPR knock-in cell, 6 hrs (B series), SMARCA2. The settings on record: 6 hrs incubation; for SMARC A2 HT1080 HiBit Dmax (%) / DC50: HT1080 CRISPR knock-in cells; for DC50: read-out: SMARC A2 HT1080 HiBit DC50; for Dmax: HT-1080, HT1080 CRISPR knock-in cells, read-out: SMARC A2 HT1080 HiBit Dmax (%). An outline of the steps: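 Compounds were dispensed first, then HT1080 knock-in cells added and incubated for 6 hrs at 37° C. Next, detection reagent containing LgBiT and lytic substrate was added. Plates were shaken 10 min and centrifuged, and luminescence was measured.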

Where [5] appears, read: Hela SMARCA2-HiBiT cells, 24 hours treatment.
Where [6] appears, read: Hela SMARCA4-HiBiT cells, 24 hours treatment.

Molecules are shown by their SMILES. A value given as a limit tells only on which side of the number the result lay.

T1 sequence (P51531 whole entry): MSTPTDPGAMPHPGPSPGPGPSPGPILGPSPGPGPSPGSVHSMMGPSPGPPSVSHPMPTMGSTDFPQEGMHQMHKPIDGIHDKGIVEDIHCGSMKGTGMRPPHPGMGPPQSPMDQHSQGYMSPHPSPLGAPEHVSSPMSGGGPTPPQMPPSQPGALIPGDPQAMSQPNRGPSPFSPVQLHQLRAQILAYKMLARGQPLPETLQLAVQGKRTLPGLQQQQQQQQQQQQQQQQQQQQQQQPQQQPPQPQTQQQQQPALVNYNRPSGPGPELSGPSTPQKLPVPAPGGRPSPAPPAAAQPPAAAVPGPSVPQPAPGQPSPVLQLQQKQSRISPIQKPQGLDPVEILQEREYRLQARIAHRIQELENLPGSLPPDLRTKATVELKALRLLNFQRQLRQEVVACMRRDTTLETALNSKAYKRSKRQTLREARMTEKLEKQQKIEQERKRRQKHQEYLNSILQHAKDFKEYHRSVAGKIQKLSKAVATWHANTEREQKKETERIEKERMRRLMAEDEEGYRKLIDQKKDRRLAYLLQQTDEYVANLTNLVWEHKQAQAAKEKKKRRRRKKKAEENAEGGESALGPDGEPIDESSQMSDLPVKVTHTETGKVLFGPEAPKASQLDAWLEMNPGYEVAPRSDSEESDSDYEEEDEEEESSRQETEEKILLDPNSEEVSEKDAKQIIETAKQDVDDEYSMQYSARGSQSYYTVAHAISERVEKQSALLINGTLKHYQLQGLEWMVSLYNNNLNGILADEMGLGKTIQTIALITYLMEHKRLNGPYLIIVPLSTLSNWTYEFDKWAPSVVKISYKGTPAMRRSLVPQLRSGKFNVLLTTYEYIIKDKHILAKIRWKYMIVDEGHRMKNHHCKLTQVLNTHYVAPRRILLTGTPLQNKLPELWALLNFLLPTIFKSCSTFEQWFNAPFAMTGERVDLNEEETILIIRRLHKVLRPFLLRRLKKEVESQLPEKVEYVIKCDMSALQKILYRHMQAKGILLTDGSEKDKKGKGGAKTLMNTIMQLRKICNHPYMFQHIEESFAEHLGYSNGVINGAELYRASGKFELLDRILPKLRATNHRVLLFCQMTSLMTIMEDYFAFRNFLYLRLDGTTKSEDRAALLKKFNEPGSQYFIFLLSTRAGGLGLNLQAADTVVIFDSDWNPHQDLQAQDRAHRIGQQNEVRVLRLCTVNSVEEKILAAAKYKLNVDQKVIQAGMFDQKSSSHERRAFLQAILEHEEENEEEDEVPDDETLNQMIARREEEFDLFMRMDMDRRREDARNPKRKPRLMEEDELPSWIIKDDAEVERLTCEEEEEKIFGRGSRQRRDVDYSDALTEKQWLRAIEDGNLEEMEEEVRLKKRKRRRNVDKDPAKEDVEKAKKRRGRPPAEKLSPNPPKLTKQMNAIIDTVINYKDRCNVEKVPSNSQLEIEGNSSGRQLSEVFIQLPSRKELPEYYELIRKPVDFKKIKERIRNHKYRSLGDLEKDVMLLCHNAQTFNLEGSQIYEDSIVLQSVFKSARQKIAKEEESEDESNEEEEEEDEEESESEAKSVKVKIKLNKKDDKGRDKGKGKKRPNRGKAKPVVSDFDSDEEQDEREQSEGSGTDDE
T2 sequence (P51532 whole entry): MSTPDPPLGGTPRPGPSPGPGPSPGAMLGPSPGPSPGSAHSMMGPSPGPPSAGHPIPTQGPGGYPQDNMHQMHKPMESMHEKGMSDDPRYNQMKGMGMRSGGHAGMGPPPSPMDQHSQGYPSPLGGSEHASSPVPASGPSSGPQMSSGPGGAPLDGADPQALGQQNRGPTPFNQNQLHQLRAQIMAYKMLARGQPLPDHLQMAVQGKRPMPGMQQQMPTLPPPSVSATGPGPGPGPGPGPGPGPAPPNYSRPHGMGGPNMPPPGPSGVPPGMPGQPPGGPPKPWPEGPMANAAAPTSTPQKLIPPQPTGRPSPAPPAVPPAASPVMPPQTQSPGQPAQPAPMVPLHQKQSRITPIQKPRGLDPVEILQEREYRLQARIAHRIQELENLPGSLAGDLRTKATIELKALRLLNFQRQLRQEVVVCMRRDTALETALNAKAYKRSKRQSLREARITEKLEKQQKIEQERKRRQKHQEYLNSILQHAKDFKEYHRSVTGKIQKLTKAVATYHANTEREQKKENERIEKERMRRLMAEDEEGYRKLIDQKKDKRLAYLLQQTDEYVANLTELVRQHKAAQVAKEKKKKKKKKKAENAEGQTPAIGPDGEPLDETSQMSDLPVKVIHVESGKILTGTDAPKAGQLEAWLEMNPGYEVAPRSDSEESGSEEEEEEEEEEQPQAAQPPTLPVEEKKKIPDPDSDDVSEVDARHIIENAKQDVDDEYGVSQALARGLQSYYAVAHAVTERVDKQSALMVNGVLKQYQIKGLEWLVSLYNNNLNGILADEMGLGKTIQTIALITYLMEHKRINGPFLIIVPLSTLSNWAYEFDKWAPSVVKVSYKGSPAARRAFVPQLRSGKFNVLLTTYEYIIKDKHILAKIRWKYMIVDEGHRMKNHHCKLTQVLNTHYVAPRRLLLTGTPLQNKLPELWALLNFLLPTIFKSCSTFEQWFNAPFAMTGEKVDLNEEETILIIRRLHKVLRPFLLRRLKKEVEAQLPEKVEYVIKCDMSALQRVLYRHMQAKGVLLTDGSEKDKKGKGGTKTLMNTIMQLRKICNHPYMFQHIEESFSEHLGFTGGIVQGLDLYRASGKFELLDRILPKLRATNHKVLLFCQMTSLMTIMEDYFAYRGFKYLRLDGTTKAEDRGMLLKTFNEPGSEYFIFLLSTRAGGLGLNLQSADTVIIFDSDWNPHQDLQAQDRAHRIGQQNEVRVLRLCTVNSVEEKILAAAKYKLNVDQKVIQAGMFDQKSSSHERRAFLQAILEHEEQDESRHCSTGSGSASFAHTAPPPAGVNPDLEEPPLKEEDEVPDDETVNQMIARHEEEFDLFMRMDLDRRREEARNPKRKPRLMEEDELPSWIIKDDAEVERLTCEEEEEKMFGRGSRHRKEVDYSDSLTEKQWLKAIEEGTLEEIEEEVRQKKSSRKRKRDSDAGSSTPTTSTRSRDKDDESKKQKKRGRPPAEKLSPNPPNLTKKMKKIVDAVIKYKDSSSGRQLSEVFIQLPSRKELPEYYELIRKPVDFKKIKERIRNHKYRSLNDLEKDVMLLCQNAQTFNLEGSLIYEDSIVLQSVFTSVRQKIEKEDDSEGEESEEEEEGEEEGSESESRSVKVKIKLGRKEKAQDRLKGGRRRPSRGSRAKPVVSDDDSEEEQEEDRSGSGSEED

Take `Cc1ncsc1-c1ccc([C@H](CCCCN2CCC(c3ccc4c(c3)C3(CCCC3)c3nc(=O)c5c(Cl)cccc5n3-4)CC2)NC(=O)[C@@H]2C[C@@H](O)CN2C(=O)[C@@H](NC(=O)C2(F)CC2)C(C)(C)C)cc1` [Compound A1, (2S,4R)-N-((S)-5-(4-(4′-chloro-5′-oxo-5′H-spiro[cyclopentane-1,7′-indolo[1,2-a]quinazolin]-9′-yl)piperidin-1-yl)-1-(4-(4-methylthiazol-5-yl)phenyl)pentyl)-1-((S)-2-(1-fluorocyclopropane-1-carboxamido)-3,3-dimethylbutanoyl)-4-hydroxypyrrolidine-2-carboxamide]: the DC50 was less than 100 nM at SMARCA2 [1] (setting [5]) and 100 to 500 nM at SMARCA4 [2] (setting [6]). For the same compound, the Dmax on SMARCA2 [1] (setting [5]) is more than 90%; on SMARCA4 [2] (setting [6]), 70 to 90%.
The matching figures for `Cc1ncsc1-c1ccc([C@H](CCCCCN2CCC(c3ccc4c(c3)C3(CCCC3)c3nc(=O)c5c(Cl)cccc5n3-4)CC2)NC(=O)[C@@H]2C[C@@H](O)CN2C(=O)[C@@H](NC(=O)C2(F)CC2)C(C)(C)C)cc1` [Compound A2, (2S,4R)—N—((S)-6-(4-(4′-chloro-5′-oxo-5′H-spiro[cyclopentane-1,7′-indolo[1,2-a]quinazolin]-9′-yl)piperidin-1-yl)-1-(4-(4-methylthiazol-5-yl)phenyl)hexyl)-1-((S)-2-(1-fluorocyclopropane-1-carboxamido)-3,3-dimethylbutanoyl)-4-hydroxypyrrolidine-2-carboxamide]: less than 100 nM, less than 100 nM, more than 90% and 70 to 90%.
For `Cc1ncsc1-c1ccc([C@H](CCCCCN2CCC(c3ccc4c(c3)C3(CCCCC3)c3nc(=O)c5c(Cl)cccc5n3-4)CC2)NC(=O)[C@@H]2C[C@@H](O)CN2C(=O)[C@@H](NC(=O)C2(F)CC2)C(C)(C)C)cc1` [Compound A3, (2S,4R)—N—((S)-6-(4-(4′-chloro-5′-oxo-5′H-spiro[cyclohexane-1,7′-indolo[1,2-a]quinazolin]-9′-yl)piperidin-1-yl)-1-(4-(4-methylthiazol-5-yl)phenyl)hexyl)-1-((S)-2-(1-fluorocyclopropane-1-carboxamido)-3,3-dimethylbutanoyl)-4-hydroxypyrrolidine-2-carboxamide], the Dmax on SMARCA2 [1] (HeLa) and at SMARCA4 [2] (HeLa) was more than 90% throughout. Further, the DC50 at SMARCA2 [1] (setting [5]) and on SMARCA4 [2] (setting [6]) was less than 100 nM throughout.
In the case of `Cc1ncsc1-c1ccc([C@H](CCCCCN2CCC(c3ccc4c(c3)C3(CCCCC3)c3nc(=O)c5c(Br)cccc5n3-4)CC2)NC(=O)[C@@H]2C[C@@H](O)CN2C(=O)[C@@H](NC(=O)C2(F)CC2)C(C)(C)C)cc1` [Compound A4, (2S,4R)—N—((S)-6-(4-(4′-bromo-5′-oxo-5′H-spiro[cyclohexane-1,7′-indolo[1,2-a]quinazolin]-9′-yl)piperidin-1-yl)-1-(4-(4-methylthiazol-5-yl)phenyl)hexyl)-1-((S)-2-(1-fluorocyclopropane-1-carboxamido)-3,3-dimethylbutanoyl)-4-hydroxypyrrolidine-2-carboxamide], the Dmax on SMARCA2 [1] (HeLa) and at SMARCA4 [2] (HeLa) was more than 90% throughout. In addition, the DC50 at SMARCA2 [1] (setting [5]) and at SMARCA4 [2] (setting [6]) was less than 100 nM in each case.
With `Cc1ncsc1-c1ccc([C@H](C)NC(=O)[C@@H]2C[C@@H](O)CN2C(=O)[C@@H](NC(=O)CN2CCC(c3ccc4c(c3)C3(CCCCC3)c3nc(=O)c5c(Cl)cccc5n3-4)CC2)C(C)(C)C)cc1` [Compound A5, (2S,4R)-1-((S)-2-(2-(4-(4′-chloro-5′-oxo-5′H-spiro[cyclohexane-1,7′-indolo[1,2-a]quinazolin]-9′-yl)piperidin-1-yl)acetamido)-3,3-dimethylbutanoyl)-4-hydroxy-N—((S)-1-(4-(4-methylthiazol-5-yl)phenyl)ethyl) pyrrolidine-2-carboxamide], the Dmax on SMARCA2 [1] (HeLa) and on SMARCA4 [2] (HeLa) was more than 90% throughout. Further, the DC50 at SMARCA2 [1] (setting [5]) and at SMARCA4 [2] (setting [6]) was less than 100 nM in each case.
With `Cc1cc(C(C(=O)N2C[C@H](O)C[C@H]2C(=O)N[C@@H](CCN2CCC(c3cccc4c3C(C)(C)c3nc(=O)c5c(Cl)cccc5n3-4)CC2)c2ccc(-c3scnc3C)cc2)C(C)C)on1` (stereo partly drawn) [Compound B165, (2S,4R)-N-((S)-3-(4-(4-chloro-7,7-dimethyl-5-oxo-5,7-dihydroindolo[1,2-a]quinazolin-8-yl)piperidin-1-yl)-1-(4-(4-methylthiazol-5-yl)phenyl)propyl)-4-hydroxy-1-(3-methyl-2-(3-methylisoxazol-5-yl)butanoyl)pyrrolidine-2-carboxamide], on SMARCA4 [3], the “SMARC A4 HT1080 HiBit Dmax(%)” value is recorded as “C (C (50-69% degradation))” and the DC50 was 100 to 500 nM. On SMARCA2 [4], the “SMARC A2 HT1080 HiBit Dmax (%)” value was “C (C (50-69% degradation))” and the DC50 lay within 100 to 500 nM.
As to `Cc1cc(C(C(=O)N2C[C@H](O)C[C@H]2C(=O)N[C@@H](CCN2CCC(c3cccc4c3C(C)(C)c3nc(=O)c5c(Cl)cccc5n3-4)CC2)c2ccc(-c3scnc3C)cc2)C(C)C)on1` (stereo partly drawn) [Compound B166, (2S,4R)-N-((S)-3-(4-(4-chloro-7,7-dimethyl-5-oxo-5,7-dihydroindolo[1,2-a]quinazolin-8-yl)piperidin-1-yl)-1-(4-(4-methylthiazol-5-yl)phenyl)propyl)-4-hydroxy-1-(3-methyl-2-(3-methylisoxazol-5-yl)butanoyl)pyrrolidine-2-carboxamide], on SMARCA4 [3], the “SMARC A4 HT1080 HiBit Dmax(%)” value is “B (B (70-90% degradation))” and the DC50 was in the range of 100 to 500 nM. Also, on SMARCA2 [4], the “SMARC A2 HT1080 HiBit Dmax (%)” value is recorded as “B (B (70-90% degradation))” and the DC50 fell in the range of 100 to 500 nM.
Turning to `Cc1nc(C)c(-c2ccc([C@H](C)NC(=O)[C@@H]3C[C@@H](O)CN3C(=O)[C@@H](c3cc(N4CCC(c5cccc6c5C(C)(C)c5nc(=O)c7c(Cl)cccc7n5-6)CC4)no3)C(C)C)cc2)s1` [Compound B167, (2S,4R)-1-(2-(3-(4-(4-chloro-7,7-dimethyl-5-oxo-5,7-dihydroindolo[1,2-a]quinazolin-8-yl)piperidin-1-yl)isoxazol-5-yl)-3-methylbutanoyl)-N-((S)-1-(4-(2,4-dimethylthiazol-5-yl)phenyl)ethyl)-4-hydroxypyrrolidine-2-carboxamide], the results for the DC50 at SMARCA4 [3] and at SMARCA2 [4] were 100 to 500 nM and less than 100 nM, respectively. Besides, the Dmax at SMARCA4 [3] was less than 50%; at SMARCA2 [4], 70 to 90%.
The matching figures for `Cc1nc(C)c(-c2ccc([C@H](C)NC(=O)[C@@H]3C[C@@H](O)CN3C(=O)[C@@H](n3cc([C@H]4CC[C@H](CN5CCN(c6ccc7c(c6)-n6c(nc(=O)c8c(Cl)cccc86)C76CCCCC6)CC5)CC4)nn3)C(C)(C)C)cc2)s1` [Compound B168, (2S,4R)-1-((S)-2-(4-((1,4S)-4-((4-(4′-chloro-5′-oxo-5′H-spiro[cyclohexane-1,7′-indolo[1,2-a]quinazolin]-10′-yl)piperazin-1-yl)methyl)cyclohexyl)-1H-1,2,3-triazol-1-yl)-3,3-dimethylbutanoyl)-N-((S)-1-(4-(2,4-dimethylthiazol-5-yl)phenyl)ethyl)-4-hydroxypyrrolidine-2-carboxamide]: 100 to 500 nM, less than 100 nM, 70 to 90% and more than 90%.
For the compound `Cc1ncsc1-c1ccc([C@H](C)NC(=O)[C@@H]2C[C@@H](O)CN2C(=O)[C@@H](n2cc(C34CC(C(=O)N5CCC(c6ccc7c(c6)-n6c(nc(=O)c8c(Cl)cccc86)C76CCCCC6)CC5)(C3)C4)nn2)C(C)(C)C)cc1` [Compound B169], on SMARCA4 [3], the DC50 was less than 100 nM and the Dmax lay in the range of 50 to 69%. For the same compound, at SMARCA2 [4], the DC50 is less than 100 nM and the Dmax lay within 70 to 90%.
